Measured values as given in the NIST ThermoML archive (doi:10.1016/j.jct.2004.06.009).

Assay: molar heat capacity at constant pressure
Settings: 101.33 kPa

CC12CC3CC(C1)CC(C)(C3)C2 [1,3-dimethyladamantane]
Settings	molar heat capacity at constant pressure [J/K/mol]
8.24 K, Crystal 2	2.062
8.72 K, Crystal 2	2.425
9.2 K, Crystal 2	2.838
9.68 K, Crystal 2	3.291
10.16 K, Crystal 2	3.758
10.73 K, Crystal 2	4.336
11.38 K, Crystal 2	5.1
12.04 K, Crystal 2	5.875
12.71 K, Crystal 2	6.75
13.36 K, Crystal 2	7.626
14.03 K, Crystal 2	8.543
14.69 K, Crystal 2	9.462
15.35 K, Crystal 2	10.41
16.02 K, Crystal 2	11.41
16.68 K, Crystal 2	12.45
17.35 K, Crystal 2	13.38
18.02 K, Crystal 2	14.36
18.7 K, Crystal 2	15.27
19.36 K, Crystal 2	16.17
20.03 K, Crystal 2	17.19
20.92 K, Crystal 2	18.43
22.01 K, Crystal 2	19.87
23.09 K, Crystal 2	21.29
24.18 K, Crystal 2	22.59
25.26 K, Crystal 2	23.98
26.35 K, Crystal 2	25.2
27.44 K, Crystal 2	26.35
30.7 K, Crystal 2	29.56
31.79 K, Crystal 2	30.56
32.87 K, Crystal 2	31.44
33.96 K, Crystal 2	32.41
35.04 K, Crystal 2	33.24
36.12 K, Crystal 2	34.11
37.2 K, Crystal 2	34.83
38.29 K, Crystal 2	35.57
39.37 K, Crystal 2	36.35
40.44 K, Crystal 2	37.09
41.52 K, Crystal 2	37.79
42.59 K, Crystal 2	38.45
43.67 K, Crystal 2	39.15
44.74 K, Crystal 2	39.94
45.82 K, Crystal 2	40.58
46.91 K, Crystal 2	41.26
49.08 K, Crystal 2	42.53
50.15 K, Crystal 2	43.17
51.21 K, Crystal 2	43.97
52.28 K, Crystal 2	44.55
53.34 K, Crystal 2	45.28
54.4 K, Crystal 2	45.93
55.46 K, Crystal 2	46.84
56.52 K, Crystal 2	47.67
58.46 K, Crystal 2	49.49
60.51 K, Crystal 2	51.1
62.53 K, Crystal 2	52.46
63 K, Crystal 2	52.93
63.91 K, Crystal 2	53.57
64.83 K, Crystal 2	54.06
65.75 K, Crystal 2	54.71
66.66 K, Crystal 2	55.08
67.58 K, Crystal 2	55.66
68.49 K, Crystal 2	56.24
69.41 K, Crystal 2	57.05
71.4 K, Crystal 2	57.87
73.43 K, Crystal 2	58.84
75.49 K, Crystal 2	59.92
77.45 K, Crystal 2	60.94
79.6 K, Crystal 2	62.15
81.55 K, Crystal 2	63.11
82.51 K, Crystal 2	63.18
83.54 K, Crystal 2	64.04
84.58 K, Crystal 2	64.38
85.62 K, Crystal 2	65.28
86.66 K, Crystal 2	66.25
87.69 K, Crystal 2	66.5
88.73 K, Crystal 2	67.15
89.76 K, Crystal 2	68.17
90.79 K, Crystal 2	68.78
91.82 K, Crystal 2	69.62
92.85 K, Crystal 2	70.65
93.88 K, Crystal 2	71.07
94.91 K, Crystal 2	71.83
95.93 K, Crystal 2	72.84
96.96 K, Crystal 2	73.52
97.98 K, Crystal 2	74.02
99.01 K, Crystal 2	74.65
100.04 K, Crystal 2	75.78
101.06 K, Crystal 2	77.14
102.08 K, Crystal 2	77.29
103.1 K, Crystal 2	78.16
104.13 K, Crystal 2	78.65
105.15 K, Crystal 2	79.24
106.17 K, Crystal 2	79.77
107.18 K, Crystal 2	80.75
108.2 K, Crystal 2	81.19
109.21 K, Crystal 2	82.31
110.22 K, Crystal 2	83.3
111.24 K, Crystal 2	83.76
112.25 K, Crystal 2	84.74
113.26 K, Crystal 2	85.56
114.27 K, Crystal 2	86.06
115.29 K, Crystal 2	86.71
116.3 K, Crystal 2	87.61
117.31 K, Crystal 2	88.53
118.32 K, Crystal 2	89.31
119.33 K, Crystal 2	90.06
120.34 K, Crystal 2	90.8
121.35 K, Crystal 2	91.66
122.36 K, Crystal 2	92.56
123.36 K, Crystal 2	93.09
124.37 K, Crystal 2	94.23
125.38 K, Crystal 2	94.72
126.39 K, Crystal 2	95.77
127.4 K, Crystal 2	96.32
128.4 K, Crystal 2	97.15
129.4 K, Crystal 2	97.61
130.4 K, Crystal 2	98.84
131.41 K, Crystal 2	99.23
132.41 K, Crystal 2	99.74
133.41 K, Crystal 2	100.92
135.41 K, Crystal 2	102.12
136.41 K, Crystal 2	102.85
137.41 K, Crystal 2	103.66
138.41 K, Crystal 2	104.15
139.41 K, Crystal 2	105.02
140.41 K, Crystal 2	106
141.4 K, Crystal 2	106.56
142.4 K, Crystal 2	107.72
143.4 K, Crystal 2	107.89
144.4 K, Crystal 2	108.44
145.37 K, Crystal 2	109.47
146.37 K, Crystal 2	110.32
147.36 K, Crystal 2	111.05
148.36 K, Crystal 2	112.04
149.35 K, Crystal 2	112.85
150.34 K, Crystal 2	113.58
151.33 K, Crystal 2	114.44
153.32 K, Crystal 2	115.43
154.31 K, Crystal 2	116.66
155.3 K, Crystal 2	117.21
156.29 K, Crystal 2	118.03
157.28 K, Crystal 2	118.57
158.26 K, Crystal 2	119.55
159.25 K, Crystal 2	119.81
160.24 K, Crystal 2	120.34
161.21 K, Crystal 2	122.14
162.2 K, Crystal 2	123.06
163.18 K, Crystal 2	123.69
164.17 K, Crystal 2	123.65
165.15 K, Crystal 2	125.01
166.14 K, Crystal 2	125.6
167.12 K, Crystal 2	126.03
168.11 K, Crystal 2	127.28
169.09 K, Crystal 2	127.61
170.07 K, Crystal 2	128.22
171.06 K, Crystal 2	129.42
172.04 K, Crystal 2	130.05
173.02 K, Crystal 2	130.24
174 K, Crystal 2	130.98
174.98 K, Crystal 2	131.94
175.95 K, Crystal 2	133.61
177.89 K, Crystal 2	134.48
178.87 K, Crystal 2	134.87
179.85 K, Crystal 2	135.66
180.58 K, Crystal 2	136.61
181.56 K, Crystal 2	136.89
182.53 K, Crystal 2	137.98
183.51 K, Crystal 2	138.41
184.48 K, Crystal 2	139.16
185.46 K, Crystal 2	140.28
186.43 K, Crystal 2	141.09
187.4 K, Crystal 2	142.02
189.35 K, Crystal 2	143.47
190.3 K, Crystal 2	143.86
194.17 K, Crystal 2	146.97
195.13 K, Crystal 2	148.03
197.07 K, Crystal 2	149.99
198.04 K, Crystal 2	150.21
198.92 K, Crystal 2	151.08
199.88 K, Crystal 2	152.08
201.81 K, Crystal 2	154.34
202.78 K, Crystal 2	154.59
203.74 K, Crystal 2	155.44
204.71 K, Crystal 2	156.27
205.67 K, Crystal 2	156.84
206.64 K, Crystal 2	157.68
207.51 K, Crystal 2	158.4
208.55 K, Crystal 2	158.98
209.51 K, Crystal 2	160.26
210.47 K, Crystal 2	161.38
211.43 K, Crystal 2	162.2
212.27 K, Crystal 2	162.95
213.23 K, Crystal 2	163.97
214.19 K, Crystal 2	164.82
215.15 K, Crystal 2	165.6
216.12 K, Crystal 2	166.3
217.08 K, Crystal 2	166.99
218.03 K, Crystal 2	167.93
218.99 K, Crystal 2	169.35
219.95 K, Crystal 2	170.97
225.79 K, Crystal 1	199.33
226.66 K, Crystal 1	199.97
227.53 K, Crystal 1	201.06
228.4 K, Crystal 1	201.46
230.04 K, Crystal 1	202.98
230.88 K, Crystal 1	203.84
230.9 K, Crystal 1	202.87
231.76 K, Crystal 1	203.35
232.42 K, Crystal 1	205.24
233.95 K, Crystal 1	206.13
235.48 K, Crystal 1	207.28
237 K, Crystal 1	208.26
238.51 K, Crystal 1	209.76
240.02 K, Crystal 1	210.33
241.45 K, Crystal 1	210.84
242.96 K, Crystal 1	212.78
244.46 K, Crystal 1	214.29
251.29 K, Liquid	225.79
252.68 K, Liquid	226.58
254.08 K, Liquid	227.55
255.49 K, Liquid	228.41
256.89 K, Liquid	229.48
258.3 K, Liquid	230.29
259.7 K, Liquid	231
261.1 K, Liquid	232.08
262.5 K, Liquid	232.76
263.89 K, Liquid	233.85
265.29 K, Liquid	235.31
266.68 K, Liquid	235.54
268.08 K, Liquid	236.58
269.46 K, Liquid	237.84
270.85 K, Liquid	239.09
272.24 K, Liquid	239.93
273.56 K, Liquid	240.47
274.94 K, Liquid	241.87
277.72 K, Liquid	243.58
279.1 K, Liquid	244.65
280.48 K, Liquid	245.61
281.85 K, Liquid	246.79
283.23 K, Liquid	247.54
284.61 K, Liquid	248.53
285.98 K, Liquid	249.45
287.36 K, Liquid	250.28
288.73 K, Liquid	251.39
290.1 K, Liquid	252.27
291.46 K, Liquid	253.18
292.84 K, Liquid	254.46
294.2 K, Liquid	254.72
295.48 K, Liquid	256.04
296.85 K, Liquid	256.83
298.22 K, Liquid	258.31
299.58 K, Liquid	259.27
300.95 K, Liquid	260.05
302.3 K, Liquid	260.79
303.66 K, Liquid	261.66
306.37 K, Liquid	263.51
307.73 K, Liquid	264.36
309.08 K, Liquid	265.4
310.42 K, Liquid	266.59
311.76 K, Liquid	267.05
313.08 K, Liquid	268.41
314.41 K, Liquid	269.34
315.76 K, Liquid	270.21
317 K, Liquid	270.69
318.33 K, Liquid	272.36
319.67 K, Liquid	272.93
321.02 K, Liquid	273.59
322.36 K, Liquid	274.52
323.7 K, Liquid	275.69
325.04 K, Liquid	276.85
326.38 K, Liquid	276.96
327.72 K, Liquid	278.17
329.06 K, Liquid	279.49
330.4 K, Liquid	280.25
331.73 K, Liquid	281.52
334.39 K, Liquid	283.43
335.72 K, Liquid	284.46
337.04 K, Liquid	285.09
338.23 K, Liquid	285.9
339.56 K, Liquid	286.67
340.88 K, Liquid	287.92
342.17 K, Liquid	289.16
343.47 K, Liquid	290.19
344.79 K, Liquid	291.02
346.09 K, Liquid	292.18
347.39 K, Liquid	292.25
348.71 K, Liquid	293.14
350.02 K, Liquid	294.11
351.34 K, Liquid	294.99
352.65 K, Liquid	295.66
353.96 K, Liquid	296.46
355.26 K, Liquid	297.51
356.57 K, Liquid	298.73
357.86 K, Liquid	298.97
359 K, Liquid	299.74
